These results are taken from patent publication US20130303509A1, “NAMPT INHIBITORS” (AbbVie Inc., priority 2012, published 2013).

SMILES strings stand for the structures.

This test relates to PC3 cells. Nature of the test: NAMPT Cell Proliferation Assay. Type of test: cell-based. Particulars: Homo sapiens, PC-3, 120 h, 5 days incubation, cell viability by Cell Titer Glo. The method, boiled down:
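Seeded at 500 cells/well in RPMI with 10% heat-inactivated FBS and left to attach overnight at 37° C, 5% CO2. Compounds were added as 10-fold dilutions […] for 5 days, then viability was read by CellTiter-Glo. IC50s came from sigmoidal fits of percent inhibition.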
In general terms: ATP-based viability assays read luminescence as a measure of living cells.
As to `O=C(Nc1ccc(S(=O)(=O)C2CCN(C(=O)Cc3cccc(F)c3)CC2)cc1)C1CN(c2cccnn2)C1` [Example 582, N-[4-({1-[(3-fluorophenyl)acetyl]piperidin-4-yl}sulfonyl)phenyl]-1-(pyridazin-3-yl)azetidine-3-carboxamide], the IC50 (commonly the concentration that inhibits the measured activity by half) is 627 nM. Molecule `CC(C)C(C)C(=O)N1CCC(c2ccc(NC(=O)C3CN(c4cccnn4)C3)cc2)CC1` (stereo not shown) [Example 326, N-{4-[1-(2,3-dimethylbutanoyl)piperidin-4-yl]phenyl}-1-(pyridazin-3-yl)azetidine-3-carboxamide] came in with a half-maximal inhibitory concentration (IC50) of 5.77 nM. The molecule `COCC(=O)N1CCC(c2ccc(NC(=O)C3CN(c4cccnn4)C3)cc2)CC1` [Example 333, N-{4-[1-(methoxyacetyl)piperidin-4-yl]phenyl}-1-(pyridazin-3-yl)azetidine-3-carboxamide] came in with an IC50 of 5.68 nM.

With `O=C(Nc1ccc(C2CCN(C(=O)c3ccccc3)CC2)cc1)[C@@H]1CCN(c2cccnn2)C1` [Example 793, (3R)—N-[4-(1-benzoylpiperidin-4-yl)phenyl]-1-(pyridazin-3-yl)pyrrolidine-3-carboxamide], the IC50 worked out at 329 nM. In the case of `Cc1ccc(C(=O)N2CCC(c3ccc(NC(=O)[C@H]4CCN(c5cccnn5)C4)cc3)CC2)cc1C` [Example 688, (3S)-N-{4-[1-(3,4-dimethylbenzoyl)piperidin-4-yl]phenyl}-1-(pyridazin-3-yl)pyrrolidine-3-carboxamide] it was 9.4 nM.

In turn, `CC(C)Cn1cc(-c2ncc(C(=O)N[C@H]3CCN(c4cccnn4)C3)s2)cn1` [Example 742, 2-[1-(2-methylpropyl)-1H-pyrazol-4-yl]-N-[(3S)-1-(pyridazin-3-yl)pyrrolidin-3-yl]-1,3-thiazole-5-carboxamide] had an IC50 of 734 nM. In turn, `Cc1cncc(N2CC(C(=O)Nc3ccc(C4CCN(C(=O)c5ccccc5)CC4)cc3)C2)c1` [Example 741, N-[4-(1-benzoylpiperidin-4-yl)phenyl]-1-(5-methylpyridin-3-yl)azetidine-3-carboxamide] came in with an IC50 of 181 nM. The figure for `Cc1ccc(N2CC[C@H](C(=O)Nc3ccc(OC4CCN(C(=O)c5ccccc5F)CC4)cc3)C2)nn1` [Example 836, (3S)—N-(4-{[1-(2-fluorobenzoyl)piperidin-4-yl]oxy}phenyl)-1-(6-methylpyridazin-3-yl)pyrrolidine-3-carboxamide] is 658 nM; for `Cc1cccc(C(=O)N2CCC(c3ccc(NC(=O)C4CN(c5cccnn5)C4)cc3)CC2)c1C` [Example 357, N-{4-[1-(2,3-dimethylbenzoyl)piperidin-4-yl]phenyl}-1-(pyridazin-3-yl)azetidine-3-carboxamide] it is 1.47 nM; for `CC(C)C(=O)N1CCC(c2ccc(NC(=O)C3CN(c4cccnc4)C3)cc2)CC1` [Example 30, N-{4-[1-(2-methylpropanoyl)piperidin-4-yl]phenyl}-1-(pyridin-3-yl)azetidine-3-carboxamide] it is 1.97 nM. `Cc1ccc(C(=O)N2CCC(Oc3ccc(NC(=O)C4CN(c5ccnnc5)C4)cc3)CC2)s1` [Example 304, N-[4-({1-[(5-methylthiophen-2-yl)carbonyl]piperidin-4-yl}oxy)phenyl]-1-(pyridazin-4-yl)azetidine-3-carboxamide] yielded an IC50 of 33.2 nM. As for `CCC(C)C(=O)N1CCC(c2ccc(NC(=O)C3CN(c4cccnn4)C3)cc2)CC1` (stereo not shown) [Example 319, N-{4-[1-(2-methylbutanoyl)piperidin-4-yl]phenyl}-1-(pyridazin-3-yl)azetidine-3-carboxamide], the 50% inhibitory concentration (IC50) came out at 1.24 nM. The figure for `O=C(Nc1ccc(OC2CCN(C(=O)c3ccoc3)CC2)cc1)C1CN(c2cccnc2)C1` [Example 54, N-(4-{[1-(furan-3-ylcarbonyl)piperidin-4-yl]oxy}phenyl)-1-(pyridin-3-yl)azetidine-3-carboxamide] is 3.31 nM; for `O=C(Nc1ccc(S(=O)(=O)C2CCN(C(=O)c3ccc(F)cc3)CC2)cc1)C1CN(c2cccnn2)C1` [Example 588, N-(4-{[1-(4-fluorobenzoyl)piperidin-4-yl]sulfonyl}phenyl)-1-(pyridazin-3-yl)azetidine-3-carboxamide] it is 113 nM. In the case of `O=C(Nc1ccc(OC2CCN(C(=O)Cc3ccc(F)cc3)CC2)cc1)C1CN(c2cccnn2)C1` [Example 232, N-[4-({1-[(4-fluorophenyl)acetyl]piperidin-4-yl}oxy)phenyl]-1-(pyridazin-3-yl)azetidine-3-carboxamide], it took 8.74 nM to reach half-maximal inhibition (IC50). The figure for `O=C(Nc1ccc(C2CCN(C(=O)Cc3cccc(F)c3)CC2)cc1)C1CN(c2ccnnc2)C1` [Example 534, N-(4-{1-[(3-fluorophenyl)acetyl]piperidin-4-yl}phenyl)-1-(pyridazin-4-yl)azetidine-3-carboxamide] is 5.46 nM; for `CC(C)(C)CC(=O)N1CC(Oc2ccc(NC(=O)C3CN(c4ccnnc4)C3)cc2)C1` [Example 254, N-(4-{[1-(3,3-dimethylbutanoyl)azetidin-3-yl]oxy}phenyl)-1-(pyridazin-4-yl)azetidine-3-carboxamide] it is 12 nM. In the case of `O=C(Nc1ccc(O[C@@H]2CCN(C(=O)C3CCOC3)C2)cc1)C1CN(c2cccnn2)C1` (stereo partly drawn) [Example 503, 1-(pyridazin-3-yl)-N-(4-{[(3R)-1-(tetrahydrofuran-3-ylcarbonyl)pyrrolidin-3-yl]oxy}phenyl)azetidine-3-carboxamide] it was 58.2 nM; in that of `Cc1ncccc1N1CC(C(=O)Nc2ccc(C3CCN(C(=O)CC4CCCC4)CC3)cc2)C1` [Example 162, N-{4-[1-(cyclopentylacetyl)piperidin-4-yl]phenyl}-1-(2-methylpyridin-3-yl)azetidine-3-carboxamide], 225 nM.

As for `CC1(C(=O)N2CCC(c3ccc(NC(=O)C4CN(c5cccnc5)C4)cc3)CC2)CC1` [Example 110, N-(4-{1-[(1-methylcyclopropyl)carbonyl]piperidin-4-yl}phenyl)-1-(pyridin-3-yl)azetidine-3-carboxamide], inhibition was half-maximal at 0.26 nM (IC50).

Molecule `CCCN1CCC(c2ccc(NC(=O)C3CN(c4cccnc4)C3)cc2)CC1` [Example 95, N-[4-(1-propylpiperidin-4-yl)phenyl]-1-(pyridin-3-yl)azetidine-3-carboxamide] had an IC50 of 73.9 nM.

For `CCC(CC)CN1CCC(c2ccc(NC(=O)C3CN(c4cccnc4)C3)cc2)CC1` [Example 92, N-{4-[1-(2-ethylbutyl)piperidin-4-yl]phenyl}-1-(pyridin-3-yl)azetidine-3-carboxamide], the IC50 amounted to 24 nM. `Cc1ncccc1N1CC(C(=O)Nc2ccc(C3CCN(C(=O)c4ccccc4F)CC3)cc2)C1` [Example 150, N-{4-[1-(2-fluorobenzoyl)piperidin-4-yl]phenyl}-1-(2-methylpyridin-3-yl)azetidine-3-carboxamide]: the IC50 came out at 58.9 nM.

Consider `O=C(Nc1ccc(OC2CN(C(=O)CC(F)(F)F)C2)cc1)C1CN(c2ccnnc2)C1` [Example 258, 1-(pyridazin-4-yl)-N-(4-{[1-(3,3,3-trifluoropropanoyl)azetidin-3-yl]oxy}phenyl)azetidine-3-carboxamide], for which the IC50 came to 309 nM. `Cc1ccc(N2CC[C@H](C(=O)Nc3ccc(OC4CCN(C(=O)C(C)(C)C)CC4)cc3)C2)nn1` [Example 838, (3S)—N-(4-{[1-(2,2-dimethylpropanoyl)piperidin-4-yl]oxy}phenyl)-1-(6-methylpyridazin-3-yl)pyrrolidine-3-carboxamide]: the 50% inhibitory concentration (IC50) was 1770 nM.
